The source of these data is ChEMBL document CHEMBL3627710, “Mitochondrial targeted β-lapachone induces mitochondrial dysfunction and catastrophic vacuolization in cancer cells” (Bioorg Med Chem Lett, 2015).

Calls of active or inactive are those of the source. The calls are words filed in the database; no cut-off is given here.

Series [1] deals with A549. The series can be described thus: Cytotoxicity against human A549 cells assessed as decrease in cell viability after 24 hrs by Celltiter-Blue assay. The series is classed as functional, cell-based.
Series [2] relates to A549. The series can be described thus: Cytotoxicity against human A549 cells assessed as vacuoles formation at 6 uM after 20 hrs by phase contrast microscopy. Format: functional, cell-based.
The test system of series [3] is A549. The series can be described thus: Induction of apoptosis in human A549 cells assessed as viable cells by annexin-V/PI staining analysis (reference value: 97.6%). The series is classed as functional.
Series [4] relates to A549. The series is described as follows: Induction of apoptosis in human A549 cells assessed as early apoptotic cells by annexin-V/PI staining analysis (reference value: 1.1%). Format: functional.
Series [5] concerns A549. The series is described as follows: Induction of apoptosis in human A549 cells assessed as late apoptotic cells by annexin-V/PI staining analysis (reference value: 1.0%). Format: functional.
Series [6] relates to A549. The series can be described thus: Induction of apoptosis in human A549 cells assessed as necrotic cells by annexin-V/PI staining analysis (reference value: 0.3%). The series is classed as functional.
Series [7] deals with A549. The series can be described thus: Effect on oligomycin-induced inhibition of mitochondrial respiration in human A549 cells assessed as oxygen consumption rate by extracellular flux analyzer. Format: functional, cell-based.
Series [8] concerns A549. The series can be described thus: Induction of autophagy in human A549 cells assessed as increase in LC3-2 expression by western blot analysis. Format: functional, cell-based. (Immunoblotting shows a protein as a band on a membrane.)
The next series concerns WM983B. The series can be described thus: Cytotoxicity against human WM983B cells assessed as decrease in cell viability at 2 to 10 uM after 24 hrs by Celltiter-Blue assay. The series is classed as functional, cell-based. In general terms: Resazurin is reduced to fluorescent resorufin, in cell work by metabolically active cells.
Another series deals with PEO1. The series is described as follows: Cytotoxicity against human PEO1 cells assessed as decrease in cell viability at 2 to 10 uM after 24 hrs by Celltiter-Blue assay. Format: functional, cell-based.
The next series has as its system MDA-MB-231. The series can be described thus: Cytotoxicity against human MDA-MB-231 cells assessed as decrease in cell viability at 2 to 10 uM after 24 hrs by Celltiter-Blue assay. The series is classed as functional, cell-based.
The subject of series [9] is A549. The series is described as follows: Cytotoxicity against human A549 cells assessed as decrease in cell viability at 10 uM for 4 hrs measured after 3 days by Celltiter-Blue assay. Format: functional, cell-based.
Series [10] is described as follows: Cytotoxicity against human IMR90 cells assessed as slight decrease in cell viability at 10 uM for 4 hrs measured after 3 days by Celltiter-Blue assay. Format: cell-based. The following applies: imr-90, 10 µM.
The subject of series [11] is A549. The series can be described thus: Induction of ROS generation in human A549 cells at 6 uM for 16 hrs by DCF dye based flow cytometry. Format: functional, cell-based. On the technique in general: Flow cytometry measures light scatter and fluorescence of single cells or particles in a stream.
In series [12] the test system is A549. The series is described as follows: Induction of ROS generation in human A549 cells at 6 uM for 16 hrs by MitoSox dye based flow cytometry. Format: functional, cell-based.
Series [13] deals with A549. The series can be described thus: Effect on mitochondrial morphology in human A549 cells assessed as onion skin-like structures of mitochondria by electron microscopy. The series is classed as functional, cell-based.
The subject of series [14] is A549. The series can be described thus: Effect on mitochondrial morphology in human A549 cells assessed as vacuoles formation by electron microscopy. The series is classed as functional, cell-based.

`CC1(C)OC2=C(CC1O)C(=O)C(=O)c1ccccc12` (stereo not given): in the series with A549 [1], the inhibition result was “Dose-dependent effect”. Besides, the result in the series on A549 [2] and in the series with A549 [8] was inactive. The Activity in the series on A549 [3] amounted to 89.2%; in the series on A549 [4] it was 4%; in the series with A549 [5], 5.7%; in the series on A549 [6], 1.1%. Moreover, the result in the series on A549 [7] was Active.
As for `CC(C)C[C@@H](/C=C/[C@H](Cc1ccccc1)C(=O)N1CCC[C@H]1C(=O)N[C@H](C(=O)N[C@@H](CCCNC(=O)OCc1ccccc1)C(=O)NCCC(=O)OC1CC2=C(OC1(C)C)c1ccccc1C(=O)C2=O)C(C)C)NC(=O)OC(C)(C)C` (stereo not given in full), in the series with A549 [1], the inhibition result is “Dose-dependent effect”. For the same compound, the inhibition entry with WM983B, in the series with PEO1, in the series with MDA-MB-231 and with A549 [9] was “Active” in each case. Moreover, the Activity entry in [10] is “Toxic”; with A549 [3], 60.9%; in the series with A549 [4], 3.9%; in the series with A549 [5], 31.5%; with A549 [6] it was 3.7%. Also, the result in the series with A549 [2], with A549 [11], in the series with A549 [12], in the series with A549 [13], in the series on A549 [14] and in the series with A549 [8] was Active. Besides, in the series with A549 [7], the result was inactive.
